Results on 25 compounds are retold here after patent US4450115A, “Amino-alcohol derivatives” (Kyowa Hakko Kogyo Co., Ltd., priority 1979, dated 1984).

One data set concerns β2-adrenergic receptor. Put plainly: β2 blocking activity (inhibition of Isoproterenol-induced decrease in diastolic blood pressure). The data set is classed as in vivo, mongrel dogs. The conditions noted are these: Table 6, dogs, 0.5 μg/kg Isoproterenol i.v. As to the method: (§1) In experiments (a), (b), (c) and (d), 3-4 male or female mongrel dogs (weight: 10-20 Kg) as one group were anesthetized by intravenous administration of 30 mg/kg of pentobarbital-Na. All compounds were dissolved in polyethylene glycol 400 and administered to the femoral vein.
(c-3) β2 blocking activity
In this test, 0.5 μg/kg of Isoproterenol is intravenously administered to the dogs to cause a decrease in diastolic blood pressure.

A further data set deals with β1-adrenergic receptor. Nature of the data set: β1 blocking activity (inhibition of Isoproterenol-induced increase in heart rate). The data set is classed as in vivo, mongrel dogs. The conditions noted are these: Table 6, dogs, 0.5 μg/kg Isoproterenol i.v. As to the method:
as §1
(c-2) β1 blocking activity
In this test, 0.5 μg/kg of Isoproterenol is intravenously administered to the dogs to cause an increase in the heart rate.

A further data set has as its system α-adrenergic receptor. Put plainly: α blocking activity (inhibition of Norepinephrine-induced increase in systolic blood pressure). The data set is classed as in vivo, mongrel dogs. The note with it: Table 6, dogs, 3 μg/kg Norepinephrine i.v. As to the method:
as §1
(c-1) α blocking activity
In this test, 3 μg/kg of Norepinephrine is intravenously administered to the dogs to cause an increase in systolic blood pressure.

The next data set is described as follows: in vivo. The conditions noted are these: mouse, male dd-strain mice. The text has this:
The test compounds were orally administered to male dd-strain mice weighing 20-25 g.

Data set [1] deals with main artery of the dogs' organ. Put plainly: Effect on organ blood flow.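 Note: percent change relative to blood flow before compound administration.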 The conditions noted are these: Canis lupus familiaris, iv, Table 5, femoral vein. The data set is classed as in vivo, mongrel dogs. As to the method: as §1
(b) Effect on organ blood flow M (%)
In this test, 1 mg/kg of each compound shown in Tables 5 and 7 is administered to the dogs and an electromagnetic probe is attached to the main artery of the dogs' organ to measure the flow of blood.

Where [2] appears, read: read-out: Organ blood flow, Crotch (percentage change).
Where [3] appears, read: read-out: Organ blood flow, Malleus (percentage change).

Counter-ions that a name gives are not always drawn. Like-named read-outs stand apart in the source and are kept apart here. Bounds are passed on as bounds.

The LD50 is the dose at which mortality reaches 50%. The low end stands for greater toxicity, the high end for lower toxicity. Regarding `COc1ccc(OCC(C)NCC(O)COc2ccc(CC(N)=O)cc2)cc1` (stereo not shown) [Compound 34, 1-(4-carbamoylmethylphenoxy)-3-{1-methyl-2-(4-methoxyphenoxy)ethylamino}-2-propanol], the “β2 blocking activity, percentage inhibition” value with β2-adrenergic receptor (test compound 0.1 mg/kg) is given as -57%. In the data set on β1-adrenergic receptor (test compound 0.1 mg/kg), the “β1 blocking activity, percentage inhibition” value is -55%. Also, in the data set on α-adrenergic receptor (test compound 0.1 mg/kg), the “α blocking activity, percentage inhibition” value is listed as -36%. The 50% lethal dose (LD50) in the data set “in vivo” (Table 6, oral) was > 1000 mg/kg.
The like results for `CC(CCc1ccccc1)NCC(O)COc1ccccc1C(N)=O` (stereo not shown) [Compound 16, 1-(2-carbamoylphenoxy)-3-(1-methyl-3-phenylpropylamino)-2-propanol] were, in that order, -19%, -57%, -28% and 250 to 500 mg/kg.
As to `O=C1CCCc2c(OCC(O)CNCc3ccc4c(c3)OCCO4)cccc21` (stereo not shown) [Compound 24, 1-{3,4-dihydro-1(2H)-naphthalenon-5-yl}oxy-3-(1,4-benzodioxane-6-methaneamino)-2-propanol], the change in vivo at 1 mg/kg amounted to 106% in data set [1] (setting [2]) and 60% in data set [1] (setting [3]). For the same compound, the median lethal dose (LD50) in “in vivo” (Table 5, oral) is > 1000 mg/kg.
For `CCOC(=O)Cc1ccc(OCC(O)CNCC2COc3ccccc3O2)cc1` (stereo not shown) [Compound 5, 1-(4-ethoxycarbonylmethyl)phenoxy-3-(1,4-benzodioxane-2-methaneamino)-2-propanol] the same measures were -26%, -84% and > 1000 mg/kg.
The like results for `Cc1cccc(OCC(O)CNCC2COc3ccccc3O2)c1` (stereo not shown) [Compound 1, 1-(3-methylphenoxy)-3-(1,4-benzodioxane-2-methaneamino)-2-propanol] were, in that order, 35%, 67% and 1000 to 2000 mg/kg.
Consider `CC(=O)Nc1ccc(OCC(O)CNCc2ccc3c(c2)OCCO3)cc1` (stereo not shown) [Compound 23, 1-(4-acetamidophenoxy)-3-(1,4-benzodioxane-6-methaneamino)-2-propanol], for which the results for the change in vivo at 1 mg/kg in data set [1] (setting [2]) and in data set [1] (setting [3]) were 90% and 67%, respectively. Further, the LD50 in the data set “in vivo” (Table 5, oral) is > 1000 mg/kg.
Turning to `Cc1c(C(O)CNCC2COc3ccccc3O2)oc2ccc(F)cc12` (stereo not shown) [Compound 9, 1-(5-fluoro-3-methyl-2-benzofuranyl)-2-(1,4-benzodioxane-2-methaneamino)ethanol], the figures for the change in vivo at 1 mg/kg in data set [1] (setting [2]) and in data set [1] (setting [3]) were 42% and 35%, respectively.
Regarding `COC(=O)c1cc(C(O)CNCC2COc3ccccc3O2)ccc1O` (stereo not shown) [Compound 10, 1-(3-methoxycarbonyl-4-hydroxy)phenyl-2-(1,4-benzodioxane-2-methaneamino)ethanol], the change in vivo at 1 mg/kg in data set [1] (setting [2]) was -50%; in data set [1] (setting [3]), -16%.
As to `Cc1cccc(OCC(O)CNCC2COc3ccccc3O2)c1C` (stereo not shown) [Compound 6, 1-(2,3-dimethylphenoxy)-3-(1,4-benzodioxane-2-methaneamino)-2-propanol], the change in vivo at 1 mg/kg in data set [1] (setting [2]) was 17%; in data set [1] (setting [3]), -9%. Also, the LD50 in “in vivo” (Table 5, oral) was > 1000 mg/kg.
`CCOC(=O)Cc1ccc(OCC(O)CNC(C)COc2ccc(OC)cc2)cc1` (stereo not shown) [Compound 32, 1-(4-ethoxycarbonylmethylphenoxy)-3-{1-methyl-2-(4-methoxyphenoxy)ethylamino}-2-propanol]: in the data set with β2-adrenergic receptor (test compound 0.1 mg/kg), the “β2 blocking activity, percentage inhibition” value is -2%. Besides, the “β1 blocking activity, percentage inhibition” value in the data set on β1-adrenergic receptor (test compound 0.1 mg/kg) is given as -11%. The “α blocking activity, percentage inhibition” value in the data set with α-adrenergic receptor (test compound 0.1 mg/kg) worked out at 0%. In addition, the LD50 in the data set “in vivo” (Table 6, oral) is > 1000 mg/kg.
For the compound `N#Cc1ccccc1OCC(O)CNCC1COc2ccccc2O1` (stereo not shown) [Compound 3, 1-(2-cyanophenoxy)-3-(1,4-benzodioxane-2-methaneamino)-2-propanol], the change in vivo at 1 mg/kg in data set [1] (setting [2]) is -21%; in data set [1] (setting [3]), 18%. The 50% lethal dose (LD50) in the data set “in vivo” (Table 5, oral) was 420 mg/kg.
Regarding `CC(CCc1ccccc1)NCC(O)COc1ccc(CC(=O)O)cc1` (stereo not shown) [Compound 17, 1-(4-carboxymethylphenoxy)-3-(1-methyl-3-phenylpropylamino)-2-propanol], in the data set with β2-adrenergic receptor (test compound 0.1 mg/kg), the “β2 blocking activity, percentage inhibition” value is listed as -13%. Besides, the “β1 blocking activity, percentage inhibition” value with β1-adrenergic receptor (test compound 0.1 mg/kg) is on record as “+13%”. In addition, the “α blocking activity, percentage inhibition” value with α-adrenergic receptor (test compound 0.1 mg/kg) is given as “+15%”. In the data set “in vivo” (Table 6, oral), the LD50 is > 1000 mg/kg.
As for `COc1ccc(OCC(C)NCC(O)COc2ccccc2C#N)cc1` (stereo not shown) [Compound 31], the “β2 blocking activity, percentage inhibition” value in the data set with β2-adrenergic receptor (test compound 0.1 mg/kg) is on record as -30%. Moreover, the “β1 blocking activity, percentage inhibition” value in the data set on β1-adrenergic receptor (test compound 0.1 mg/kg) was -54%. In the data set on α-adrenergic receptor (test compound 0.1 mg/kg), the “α blocking activity, percentage inhibition” value is recorded as -20%. Besides, the 50% lethal dose (LD50) in the data set “in vivo” (Table 6, oral) was in the range of 125 to 250 mg/kg.
`CC(CCc1ccccc1)NCC(O)COc1ccc(CC(N)=O)cc1` (stereo not shown) [Compound 11, 1-(4-carbamoylmethylphenoxy)-3-(1-methyl-3-phenylpropylamino)-2-propanol]: in the data set with β2-adrenergic receptor (*dose of compound 1 mg/kg), the “β2 blocking activity, percentage inhibition” value is recorded as -22%. For the same compound, the “β1 blocking activity, percentage inhibition” value in the data set with β1-adrenergic receptor (*dose of compound 1 mg/kg) is given as -86%. Also, in the data set with α-adrenergic receptor (*dose of compound 1 mg/kg), the “α blocking activity, percentage inhibition” value is on record as -78%. For the same compound, the 50% lethal dose (LD50) in “in vivo” (Table 6, oral) was > 1000 mg/kg.
For `COc1ccc(OCC(C)NCC(O)COc2ccc(NC(C)=O)cc2)cc1` (stereo not shown) [Compound 33, 1-(4-acetamidophenoxy)-3-{1-methyl-2-(4-methoxyphenoxy)ethylamino}-2-propanol], the “β2 blocking activity, percentage inhibition” value in the data set on β2-adrenergic receptor (test compound 0.1 mg/kg) is given as -13%. The “β1 blocking activity, percentage inhibition” value in the data set with β1-adrenergic receptor (test compound 0.1 mg/kg) is -52%. Moreover, the “α blocking activity, percentage inhibition” value in the data set with α-adrenergic receptor (test compound 0.1 mg/kg) is listed as -21%. Also, the LD50 in the data set “in vivo” (Table 6, oral) was > 1000 mg/kg.
With `CCOC(=O)Cc1ccc(C(O)CNC(C)CCc2ccccc2)cc1` (stereo not shown) [Compound 21, 1-(4-ethoxycarbonylmethylphenyl)-2-(1-methyl-3-phenylpropylamino) ethanol], the “β2 blocking activity, percentage inhibition” value with β2-adrenergic receptor (test compound 0.1 mg/kg) was -8%. Moreover, in the data set with β1-adrenergic receptor (test compound 0.1 mg/kg), the “β1 blocking activity, percentage inhibition” value is reported as -10%. For the same compound, the “α blocking activity, percentage inhibition” value with α-adrenergic receptor (test compound 0.1 mg/kg) is reported as “+9%”. Also, in the data set “in vivo” (Table 6, oral), the LD50 is > 1000 mg/kg.
With `OC(CNCC1COc2ccccc2O1)COc1cccc2ccccc12` (stereo not shown) [Compound 7, 1-(1-naphthyloxy)-3-(1,4-benzodioxane-2-methaneamino)-2-propanol], the results for the change in vivo at 1 mg/kg in data set [1] (setting [2]) and in data set [1] (setting [3]) were -36% and 59%, respectively. For the same compound, the 50% lethal dose (LD50) in the data set “in vivo” (Table 5, oral) is > 1000 mg/kg.
Turning to `CC(CCc1ccccc1)NCC(O)COc1ccccc1C#N` (stereo not shown) [Compound 12, 1-(2-cyanophenoxy)-3-(1-methyl-3-phenylpropylamino)-2-propanol], the “β2 blocking activity, percentage inhibition” value with β2-adrenergic receptor (*dose of compound 1 mg/kg) is listed as -100%. Besides, the “β1 blocking activity, percentage inhibition” value with β1-adrenergic receptor (*dose of compound 1 mg/kg) is -100%. Moreover, the “α blocking activity, percentage inhibition” value in the data set on α-adrenergic receptor (*dose of compound 1 mg/kg) is recorded as -52%. Besides, the LD50 in “in vivo” (Table 6, oral) lay within 125 to 250 mg/kg.
As to `CCOC(=O)Cc1cccc(OCC(O)CNC(C)CCc2ccccc2)c1` (stereo not shown) [Compound 19, 1-(3-ethoxycarbonylmethylphenoxy)-3-(1-methyl-3-phenylpropylamino)-2-propanol], the “β2 blocking activity, percentage inhibition” value in the data set on β2-adrenergic receptor (test compound 0.1 mg/kg) is “+14%”. Besides, the “β1 blocking activity, percentage inhibition” value in the data set with β1-adrenergic receptor (test compound 0.1 mg/kg) is -7%. Also, the “α blocking activity, percentage inhibition” value in the data set on α-adrenergic receptor (test compound 0.1 mg/kg) is reported as “+23%”. Further, the LD50 in the data set “in vivo” (Table 6, oral) was > 1000 mg/kg.
The like results for `CC(CCc1ccccc1)NCC(O)c1ccc(CC(N)=O)cc1` (stereo not shown) [Compound 22, 1-(4-carbamoylmethylphenyl)-2-(1-methyl-3-phenylpropylamino) ethanol] were, in that order, -11%, -8%, “+19%” and > 1000 mg/kg.
`CC(CCc1ccccc1)NCC(O)c1ccc(O)c(C(N)=O)c1` (stereo not shown) [Reference compound, 5-[1-hydroxy-2-(1-methyl-3-phenylpropyl)aminoethyl] salicylamide hydrochloride, reference compound]: in the data set on β2-adrenergic receptor (test compound 0.1 mg/kg), the “β2 blocking activity, percentage inhibition” value was -50%. The “β1 blocking activity, percentage inhibition” value in the data set on β1-adrenergic receptor (test compound 0.1 mg/kg) was -69%. The “α blocking activity, percentage inhibition” value with α-adrenergic receptor (test compound 0.1 mg/kg) was -32%.
As to `Cc1cccc(OCC(O)CNC(C)CCc2ccccc2)c1C` (stereo not shown) [Compound 13, 1-(2,3-dimethylphenoxy)-3-(1-methyl-3-phenylpropylamino)-2-propanol], in the data set on β2-adrenergic receptor (test compound 0.1 mg/kg), the “β2 blocking activity, percentage inhibition” value is reported as -34%. For the same compound, in the data set on β1-adrenergic receptor (test compound 0.1 mg/kg), the “β1 blocking activity, percentage inhibition” value is -73%. Besides, in the data set on α-adrenergic receptor (test compound 0.1 mg/kg), the “α blocking activity, percentage inhibition” value is -20%. The LD50 in the data set “in vivo” (Table 6, oral) was 500 to 1000 mg/kg.
In the case of `CC(=O)Nc1ccc(OCC(O)CNCC2COc3ccccc3O2)cc1` (stereo not shown) [Compound 2, 1-(4-acetamidophenoxy)-3-(1,4-benzodioxane-2-methaneamino)-2-propanol], the change in vivo at 1 mg/kg in data set [1] (setting [2]) worked out at 20%; in data set [1] (setting [3]), 50%. In addition, in the data set “in vivo” (Table 5, oral), the LD50 was in the range of 500 to 1000 mg/kg.
For `COc1ccc(C(O)C(C)NCC2COc3ccccc3O2)cc1C` (stereo not shown) [Compound 8, 1-(3-methyl-4-methoxy)phenyl-2-(1,4-benzodioxane-2-methaneamino)propanol] the same measures were -67%, -4% and 450 mg/kg.
With `NC(=O)Cc1ccc(OCC(O)CNCc2ccc3c(c2)OCCO3)cc1` (stereo not shown) [Compound 25, 1-(4-carbamoylmethylphenoxy)-3-(1,4-benzodioxane-6-methaneamino)-2-propano], the figures for the change in vivo at 1 mg/kg in data set [1] (setting [2]) and in data set [1] (setting [3]) were 90% and 22%, respectively. In addition, the LD50 in the data set “in vivo” (Table 5, oral) is > 1000 mg/kg.
